Common to all, as to type: cell-based
In assay [1] the test system is human neutrophils. The assay is described as follows: Chemotaxis assay, human neutrophils. Particulars: bell shaped concentration curve; FIG. 3A. Here is the method: (§1) FIGS. 3A-F: α-Synuclein is a chemoattractant dependent on CD11b. Assays were conducted as described in the examples below. The average of 3 independent assays for each sample is presented. The concentration of the α-synuclein aggregate is in terms of the monomer. A positive control, FMLP, is noted in black. NAc 1-21, the N-acetylated peptide corresponding to the first 21 amino acids of α-synuclein; 1-25, a peptide corresponding to the first 25 amino acids. FIG. 3A=Human Neutrophils; FIG. 3B=Human monocytes; FIGS. 3C and 3D=Representative photos of the cellular response. FIG. 3E=Neutrophils from CD11b −/− or wild type mice (0.5×10^6/ml), assayed as described in the examples. FIG. 3F=Human neutrophils incubated in the presence of anti-CD11b antibody or control (50 μg/ml each). CM, control media (negative control)
(§2) Chemotaxis, or the movement of cells in response to a chemical stimulus, is routinely measured in a Boyden chamber. In this apparatus, immune cells are attached to one side of a membrane containing pores through which the immune cells can traffic. On the other side of the membrane a chemoattractant is introduced. Over the course of several hours the immune cells migrate from the side of the membrane on which they were initially placed to the side exposed to the chemoattractant. […] After 24 hours the number of immune cells that have migrated to towards the chemoattractant are counted. […]

For assay [2], the system named is human monocytes. Nature of the assay: Chemotaxis assay, human monocytes. Particulars: bell shaped concentration curve; FIG. 3B. The protocol:
as §1, §2

Assay [3] deals with human monocyte derived dendritic cells. Nature of the assay: Dendritic cell maturation, flow cytometry of surface markers. Particulars: 10 μM, 48 h, FIG. 4. Here is the method:
FIG. 4: Human monocyte derived dendritic cells were incubated at 5×10^5/ml in the presence of recombinant monomeric or aggregated alpha-synuclein, and the NAc 1-21 amino terminal peptide of alpha-synuclein (each at a final concentration of 10 μM) for 48 h before they were immunostained and analyzed by flow cytometry for the expression of the indicated surface molecules. E. coli lipopolysaccharide (LPS) (100 ng/ml) was included as a positive control. Shown are the results of one experiment representative of three. The ordinate of […].
Chemotaxis assays followed published procedures. De et al. (2000). Neutrophils and monocytes were isolated from the blood of healthy human donors as described. Id. Recombinant human α-synuclein (lot #20162050, endotoxin contamination 18.6 EU/mg) was from Proteos, Inc. via the Michael J. Fox Foundation. The α-synuclein aggregates were made following a protocol provided by Proteos. […]
Human monocyte derived dendritic cells were exposed for 2 days to α-synuclein monomer, aggregate, and N—Ac 1-21 peptide and then analyzed by flow cytometry to measure the extent of phenotypic maturation, using CD80, CD83, CD86, HLA-ABC, and HLA-DR as determinants (FIG. 4).
(In general: A flow cytometer gives signals particle by particle.)

The source of these data is US20180344748A1, “METHODS AND COMPOSITIONS FOR PREVENTING OR TREATING CHRONIC INFLAMMATORY DISEASES” (ENTERIN LABORATORIES, INC., priority 2017, published 2018).

“peptide, extending to residue 25: a peptide corresponding to the first 25 amino acids of α-synuclein, lacking the N-acetyl moiety”: the “chemotactic activity towards human neutrophils” value in assay [1] is “inactive”. Further, the “chemotactic activity towards human monocytes” value in assay [2] was “inactive”.

As to “N-acetylated peptide: the N-acetylated peptide corresponding to the first 21 amino acids of α-synuclein”, the “dendritic cell maturation (CD80, CD83, CD86, HLA-ABC, HLA-DR)” value in assay [3] is reported as “did not”. Also, the “chemotactic activity towards human neutrophils” value in assay [1] is “retained the chemotactic activity of the full-length protein”. Also, in assay [2], the “chemotactic activity towards human monocytes” value is “retained the chemotactic activity of the full-length protein”.
